Data taken from the NIST ThermoML archive (doi:10.1016/j.jct.2017.08.035).
Numbers after ± are expanded uncertainties.

Settings: for surface tension liquid-gas: Maximal bubble pressure; for mass density: 100 kPa, Liquid, Vibrating tube method

SMILES	surface tension liquid-gas (298.15 K) [mN/m]	mass density (298.15 K) [kg/m3]	surface tension liquid-gas (303.15 K) [mN/m]	mass density (303.15 K) [kg/m3]	surface tension liquid-gas (308.15 K) [mN/m]	mass density (308.15 K) [kg/m3]	surface tension liquid-gas (313.15 K) [mN/m]	mass density (313.15 K) [kg/m3]	surface tension liquid-gas (318.15 K) [mN/m]	mass density (318.15 K) [kg/m3]	surface tension liquid-gas (323.15 K) [mN/m]	mass density (323.15 K) [kg/m3]	surface tension liquid-gas (328.15 K) [mN/m]	mass density (328.15 K) [kg/m3]	surface tension liquid-gas (333.15 K) [mN/m]	mass density (333.15 K) [kg/m3]	surface tension liquid-gas (338.15 K) [mN/m]	mass density (338.15 K) [kg/m3]
CCn1cc[n+](CCOC)c1.O=S(=O)([N-]S(=O)(=O)C(F)(F)F)C(F)(F)F	36 ± 0.4	1463.13 ± 2.4	35.8 ± 0.4	1458.11 ± 2.4	35.5 ± 0.4	1453.11 ± 2.4	35.2 ± 0.4	1448.12 ± 2.4	35 ± 0.4	1443.16 ± 2.4	34.7 ± 0.4	1438.21 ± 2.4	34.4 ± 0.4	1433.29 ± 2.4	34.1 ± 0.4	1428.39 ± 2.4	33.9 ± 0.4	1423.51 ± 2.4
CCn1cc[n+](CCOC)c1.O=S(=O)([O-])C(F)(F)F	38 ± 0.4	1355.89 ± 4.6	37.7 ± 0.4	1351.61 ± 4.6	37.4 ± 0.4	1347.35 ± 4.6	37.1 ± 0.4	1343.11 ± 4.6	36.9 ± 0.4	1338.88 ± 4.6	36.5 ± 0.4	1334.67 ± 4.6	36.3 ± 0.4	1330.48 ± 4.6	36.1 ± 0.4	1326.3 ± 4.6	35.8 ± 0.4	1322.12 ± 4.6
CC(=O)[O-].CCn1cc[n+](CCOC)c1 [1-ethyl-3-(2-methoxyethyl)imidazolium acetate]	46 ± 0.5	1192.38 ± 4.6	45.7 ± 0.5	1189.07 ± 4.6	45.4 ± 0.5	1185.74 ± 4.6	45.1 ± 0.5	1182.43 ± 4.6	44.8 ± 0.5	1179.14 ± 4.6	44.5 ± 0.5	1175.86 ± 4.6	44.3 ± 0.5	1172.58 ± 4.6	44.1 ± 0.5	1169.35 ± 4.6	43.9 ± 0.5	1166.13 ± 4.6
CCn1cc[n+](CCOC)c1.N#C[N-]C#N [1-ethyl-3-(2-methoxyethyl)imidazolium dicyanamide]	44.6 ± 0.5	1113.6 ± 4.6	44.3 ± 0.5	1110.21 ± 4.6	44 ± 0.5	1106.83 ± 4.6	43.7 ± 0.5	1103.48 ± 4.6	43.4 ± 0.5	1100.15 ± 4.6	43.1 ± 0.5	1096.84 ± 4.6	42.9 ± 0.5	1093.53 ± 4.6	42.7 ± 0.4	1090.26 ± 4.6	42.4 ± 0.4	1087 ± 4.6
CCn1cc[n+](CCOC)c1.N#C[S-] [1-ethyl-3-(2-methoxyethyl)imidazolium thiocyanate]	49 ± 0.5	1122.11 ± 4.6	48.7 ± 0.5	1118.89 ± 4.6	48.4 ± 0.5	1115.69 ± 4.6	48 ± 0.5	1112.52 ± 4.6	47.7 ± 0.5	1109.37 ± 4.6	47.5 ± 0.5	1106.23 ± 4.6	47.3 ± 0.5	1103.12 ± 4.6	47.1 ± 0.5	1100.01 ± 4.6	46.7 ± 0.5	1096.92 ± 4.6
